The values below come from patent US10596234B2, “Compositions and methods to inhibit viral replication” (priority 2016, dated 2020).

One series deals with IFN-β. Description: IFN-β ELISA, 293T cells stably expressing UL37 infected with Sendai virus. The format is cell-based, human. To be noted: UL37 expression, SeV infection, 16 hpi. The method, then: Commercial cytokine ELISA kits used in this study include: human IFN-β (PBL Assay Science) and human RANTES (R&D Systems). Cytokine levels in the supernatant from cultured cells were assessed according to manufacturer's instruction. Absorbance was determined with FLUOstar Omega (BMG Labtech.).
A general note: An ELISA detects its analyte on a solid surface through an enzyme-linked reagent.

Another series concerns the target T1, RIG-I (Homo sapiens, UniProt O95786, D580E).
T1 construct: made in house; host or cells: GST-RIG-I: transfected 293T cells; UL37: E. coli
T1 sequence (O95786 1-925 D580E): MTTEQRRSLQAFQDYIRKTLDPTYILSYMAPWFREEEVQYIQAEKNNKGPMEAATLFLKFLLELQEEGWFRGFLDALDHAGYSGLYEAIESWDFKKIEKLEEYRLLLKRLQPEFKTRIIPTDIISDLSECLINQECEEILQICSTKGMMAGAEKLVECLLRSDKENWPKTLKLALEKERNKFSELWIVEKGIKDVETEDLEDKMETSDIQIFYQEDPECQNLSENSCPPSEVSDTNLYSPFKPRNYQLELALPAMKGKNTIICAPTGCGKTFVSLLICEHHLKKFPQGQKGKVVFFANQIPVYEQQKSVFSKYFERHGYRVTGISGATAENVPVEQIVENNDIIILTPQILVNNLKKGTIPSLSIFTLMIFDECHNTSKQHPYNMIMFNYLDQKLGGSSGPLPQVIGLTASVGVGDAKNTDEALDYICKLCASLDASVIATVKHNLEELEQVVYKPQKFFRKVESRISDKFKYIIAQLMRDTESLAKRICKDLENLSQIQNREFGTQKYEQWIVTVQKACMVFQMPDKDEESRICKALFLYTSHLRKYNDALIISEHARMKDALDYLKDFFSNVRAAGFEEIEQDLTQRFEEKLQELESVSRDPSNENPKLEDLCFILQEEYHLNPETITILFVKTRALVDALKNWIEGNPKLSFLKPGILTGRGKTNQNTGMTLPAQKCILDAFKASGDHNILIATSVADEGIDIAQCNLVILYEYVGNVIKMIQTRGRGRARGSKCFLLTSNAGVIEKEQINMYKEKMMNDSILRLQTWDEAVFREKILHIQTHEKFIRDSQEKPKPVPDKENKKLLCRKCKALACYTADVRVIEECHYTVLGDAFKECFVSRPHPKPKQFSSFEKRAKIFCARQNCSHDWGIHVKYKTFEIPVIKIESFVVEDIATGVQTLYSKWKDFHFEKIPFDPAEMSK
Description: In vitro deamidation assay (RIG-I). It counts as biochemical. The settings on record: protein purified from E. coli, 2-DGE. The procedure: GST-RIG-I was purified from transfected 293T cells to homogeneity as determined by silver staining. In vitro on-column deamidation of RIG-I was performed as previously reported (He et al., 2015). Briefly, ˜0.2 μg of His-tagged UL37/UL37 (571-1123) expressed and purified from E. coli, and 0.6 μg of GST-RIG-I (bound to glutathione-conjugated agarose) were added to a total volume of 30 μl. The reaction was carried out at 30° C. for 45 min in deamidation buffer (50 mM Tris-HCl, pH 7.5, 100 mM NaCl, 5 mM MgCl2). Protein-bound GST beads were washed with deamidation buffer and GST-RIG-I was eluted with rehydration buffer (6 M Urea, 2 M Thio-urea, 2% CHAPS, 0.5% IPG Buffer, 0.002% bromophenol blue) at room temperature. Samples were then analyzed by two-dimensional gel electrophoresis and immunoblotting.

Series [1] concerns cGAS. Description: cGAMP reporter assay (THP1-Lucia). It counts as cell-based, human. The settings on record: THP-1 cells transfected with HT-DNA (HT-DNA alone approximately 60 ng). The method, then:
THP-1 Cells were transfected with HT-DNA (2 μg/ml) or infected with HSV-1 virus for 6 h. Cell extracts were prepared by heating at 95° C. for 5 min to denature most proteins, and then the precipitated proteins were removed by centrifugation. The supernatant containing cGAMP was delivered to digitonin-permeabilized (2.5 μg/ml for 30 min) THP1-Lucia cells at 37° C. for 30 min. The cells were cultured for another 20 h before Lucia reporter activity was measured according to the manufacturer's instruction (InvivoGen). Pure cGAMP was diluted and used as standard for the assay.
(Reporter assays use an easily measured gene product as a stand-in for the process of interest.)

Series [2] deals with cGAS. Description: Real-time PCR in THP-1 cells stably expressing UL37, transfected with HT-DNA. The format is cell-based, human. The method, then:
THP-1 or L929 cells were infected with HSV-1 (MOI=5) or stimulated with HT-DNA (2 μg/ml) or cGAMP (2 μg/ml) for 6 h unless specifically indicated otherwise. Cells were washed with cold PBS, and total RNA was extracted by using TRIzol Reagent (Invitrogen). RNA was digested with DNase I (New England Biolabs) to remove genomic DNA. One microgram of total RNA was used for reverse transcription with PrimeScript Reverse Transcriptase (Clontech) according to the manufacturer's instruction. Approximately 0.5% of the cDNA was used as template in each quantitative real-time PCR (qRT-PCR) reaction with SYBR master mix (Applied biosystems).
Lentivirus production was carried out in 293T cells as described previously. THP-1 or L929 cells were infected with lentivirus containing UL37 or UL37 C819S mutant. After 36 h, THP-1 cells were selected with puromycin at 1 μg/ml and L929 cells were selected with puromycin at 5 μg/ml.
A general note: Quantitative PCR measures a nucleic acid by following its amplification.

The subject of series [3] is cGAS. Description: Tandem mass spectrometry quantification of cGAS deamidation. The format is biochemical, mouse. To be noted: UL37 expression; N196, N377, Q436, Q439. The method, then:
Purified mcGAS(141-507) was deamidated by purified FLAG-UL37 in vitro. Then the samples were resolved with SDS-PAGE and the mcGAS bands were excised and applied to LC/MS/MS analysis. The analysis of samples was carried out using a Thermo Scientific Q-Exactive hybrid Quadrupole-Orbitrap Mass Spectrometer and a Thermo Dionex UltiMate 3000 RSLCnano System. Peptide mixtures from each sample were loaded onto a peptide trap cartridge at a flow rate of 5 μL/min. The trapped peptides were eluted onto a reversed-phase PicoFrit column (New Objective, Woburn, Mass.) using a linear gradient of acetonitrile (3-36%) in 0.1% formic acid. The elution duration was 120 min at a flow rate of 0.3 μl/min. Eluted peptides from the PicoFrit column were ionized and sprayed into the mass spectrometer, using a Nanospray Flex Ion Source ES071 (Thermo) under the following settings: spray voltage, 2.0 kV, Capillary temperature, 250° C. Other settings were empirically determined. Raw data files were searched against mouse protein sequence database obtained from NCBI website using the Proteome Discoverer 1.4 software (Thermo, San Jose, Calif.) based on the SEQUEST algorithm. Carbamidomethylation (+57.021 Da) of cysteines was fixed modification, and Oxidation and Deamidation Q/N-deamidated (+0.98402 Da) were set as dynamic modifications. The minimum peptide length was specified to be five amino acids. […]

For series [4], the system named is cGAS. Description: In vitro deamidation assay (cGAS). The settings on record: purified proteins. The format is biochemical, mouse. The method, then:
The in vitro deamidation assay was performed as previously described. Briefly, 5 μg of purified MBP-mcGAS or MBP-mcGAS-DDEE mutant on amylose resin was incubated with 0.5 gig of purified FLAG-UL37 or FLAG-UL37C819S at 30° C. for 45 min in deamidation buffer (50 mM Tris-HCl [pH 7.5], 100 mM NaCl, and 5 mM MgCl2). Then the reaction was stopped by adding rehydration buffer and the eluted proteins were analyzed by two-dimensional gel electrophoresis.

The target of series [5] is T2, cGAS (Mus musculus, UniProt Q8C6L5).
T2 construct: Purified mcGAS(141-507) was deamidated by purified FLAG-UL37 in vitro; made in house; host or cells: E. coli BL21 (DE3)
Description: In vitro cGAMP activity assay. The format is biochemical. To be noted: in vitro cGAMP reaction. The procedure: 1 μM of MBP-cGAS or mutant proteins was mixed with 100 μM ATP and 100 μM GTP and 10 μCi [α-P32]-ATP in reaction buffer (20 mM Tris-Cl [pH 7.5], 150 mM NaCl, 5 mM MgCl2, 1 mM dithiothreitol [DTT]). After 2 h of incubation at 37° C., 2 μl of reaction solution was spotted onto PEI-Cellulose thin layer chromatography plate (Sigma). Reaction products were resolved with running buffer (1 M (NH4)2SO4, 1.5 M KH2PO4, pH 3.8). The TLC plates were dried and scanned with Phosphoimager (Fuji).

For series [6], the system named is interferon-stimulating DNA (ISD). Description: Precipitation of biotinylated interferon-stimulating DNA (ISD) with cGAS. It counts as binding.

T2 sequence (Q8C6L5 141-507): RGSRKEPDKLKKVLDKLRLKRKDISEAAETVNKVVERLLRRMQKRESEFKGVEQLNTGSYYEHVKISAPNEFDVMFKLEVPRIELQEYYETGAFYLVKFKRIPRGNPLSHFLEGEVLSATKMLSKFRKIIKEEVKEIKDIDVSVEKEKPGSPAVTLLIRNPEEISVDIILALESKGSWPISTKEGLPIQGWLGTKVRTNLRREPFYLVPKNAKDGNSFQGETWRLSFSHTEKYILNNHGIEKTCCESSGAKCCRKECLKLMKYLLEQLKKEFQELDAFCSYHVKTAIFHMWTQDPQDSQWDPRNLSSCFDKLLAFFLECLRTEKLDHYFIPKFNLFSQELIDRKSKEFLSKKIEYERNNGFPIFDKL

“UL37: HSV-1 UL37 tegument protein, a protein deamidase; SEQ ID NO. 1”: the “reduction of IFN-β secretion” value with IFN-β is ~75%. Moreover, in the series with RIG-I, the “RIG-I deamidation in vitro” value is “sufficient to reduce RIG-I charge”. Also, in the series on cGAS [1], the “intracellular cGAMP” value is on record as ~35 ng per one million THP-1 cells. The “reduction of IFNB1 and ISG56 expression” value in the series on cGAS [2] (THP-1 cells, HT-DNA transfection, UL37 expression) was ~60%. The “effect on expression of IFNB1, ISG56 and CXCL10 induced by HT-DNA” value in the series with cGAS [2] (THP-1 stable cell lines) was “potently reduced the expression of IFNB1, ISG56 and CXCL10”. In the series with cGAS [3], the “increase of deamidation of the four cGAS sites” value is 2-3 fold. Also, the “cGAS deamidation in vitro (2DGE shift)” value in the series on cGAS [4] was “shifted cGAS toward the positive end of the gel strip”. Further, the “effect of added UL37 on cGAS-mediated cGAMP production” value in the series with cGAS [5] is given as “greatly reduced cGAS-mediated cGAMP production”. In series [6], the “increase of the interaction between cGAS and ISD” value is ~50%.
